Measurements: US11376307B2, “Compositions and methods of treating cancer with glycomimetic peptides” (SUSAVION BIOSCIENCES, INC., priority 2018, dated 2022)
Positions of bridges follow the written chain, without caps; N, C: chain ends. Chains are numbered I, II in the order given.

Columns and labels:
CD44 = molecular target: T1, CD44 (Homo sapiens, UniProt P16070); assay: Solid-phase binding assay, survey of other receptors
T1 construct: The extracellular domains of receptors, which were fused with the Fc domain of immunoglobulin IgG; purchased R&D Systems
T1 sequence (P16070 21-220 limits assumed): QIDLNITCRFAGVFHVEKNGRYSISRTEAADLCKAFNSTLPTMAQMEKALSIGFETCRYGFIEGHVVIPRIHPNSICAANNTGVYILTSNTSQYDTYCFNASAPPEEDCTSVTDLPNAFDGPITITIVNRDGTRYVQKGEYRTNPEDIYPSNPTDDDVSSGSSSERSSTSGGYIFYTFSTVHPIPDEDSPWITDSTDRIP
Procedure: (§1) Binding Assays Solid-phase binding assays were performed with streptavidin-, protein A/G-, or Nickel-coated microtiter plates (Pierce). His-tagged or Fc-fusion recombinant receptors (R&D Systems, Minneapolis, Minn.) were reconstituted in PBS. Sufficient receptors were added to wells to saturate the coating. His-tagged receptors were added to each well at a 5-fold excess over the stated capacity of the Ni coating to minimize non-specific binding of the peptide. Wells were washed three times with binding buffer (25 mM Tris HCl, pH 7.4, 150 mM NaCl, 0.05% Tween-20) to remove unbound receptor and 50 μL of 2 μM biotinylated peptide in binding buffer were added and allowed to incubate for 1 h. The wells were washed four times with binding buffer and then incubated with 50 μL of 1 μg/mL streptavidin conjugated with peroxidase (Sigma-Aldrich) for 1 h. The wells were washed five times with binding buffer and 50 μL of peroxidase substrate (1-Step™ Ultra TMB, Pierce) were added. After several minutes to allow color development, the reaction was stopped with 50 μL 1 M H3PO4 and absorbance was measured at 450 nm. Bound streptavidin was quantitated by the specific activity of peroxidase (absorbance/ng protein conjugate/min) under the conditions of the assay.
(§2) Solid-phase binding assays were performed with recombinant human receptors. Three variations of the binding assay were used in this study, all of which allowed the arms of the tetravalent peptide to have full flexibility. (i) Biotinylated peptide was bound in microtiter wells coated with streptavidin and incubated with recombinant human receptors. After extensive washing, the bound receptor was measured by peroxidase conjugated to a receptor-specific antibody. (ii) The extracellular domains of receptors, which were fused with the Fc domain of immunoglobulin IgG, were bound in wells coated with protein A/G. Biotinylated peptide was incubated with the receptors and, after extensive washing, bound peptide was measured with streptavidin conjugated with peroxidase. Or (iii), recombinant receptors with a poly-His tag were bound to Nickel-coated wells and incubated with biotinylated peptide. svL4 and sv6D contain His residues (FIGS. 1A, 1C) and can bind to the Ni coating, which was minimized by adding sufficient poly-His-tagged receptor to saturate the Ni coating.
(§3) Of the receptors we have assayed thus far, the peptides bound to those specific for GalNAc, which included CLEC4F, a GalNAc-binding receptor expressed by Kupffer cells that is also homologous to ASGPR-1 [50].

Siglec-1 = molecular target: T2, Siglec-1 (Homo sapiens, UniProt Q9BZZ2); assay: as above
T2 construct: The extracellular domains of receptors, which were fused with the Fc domain of immunoglobulin IgG; purchased R&D Systems
T2 sequence (Q9BZZ2 20-1641 limits assumed): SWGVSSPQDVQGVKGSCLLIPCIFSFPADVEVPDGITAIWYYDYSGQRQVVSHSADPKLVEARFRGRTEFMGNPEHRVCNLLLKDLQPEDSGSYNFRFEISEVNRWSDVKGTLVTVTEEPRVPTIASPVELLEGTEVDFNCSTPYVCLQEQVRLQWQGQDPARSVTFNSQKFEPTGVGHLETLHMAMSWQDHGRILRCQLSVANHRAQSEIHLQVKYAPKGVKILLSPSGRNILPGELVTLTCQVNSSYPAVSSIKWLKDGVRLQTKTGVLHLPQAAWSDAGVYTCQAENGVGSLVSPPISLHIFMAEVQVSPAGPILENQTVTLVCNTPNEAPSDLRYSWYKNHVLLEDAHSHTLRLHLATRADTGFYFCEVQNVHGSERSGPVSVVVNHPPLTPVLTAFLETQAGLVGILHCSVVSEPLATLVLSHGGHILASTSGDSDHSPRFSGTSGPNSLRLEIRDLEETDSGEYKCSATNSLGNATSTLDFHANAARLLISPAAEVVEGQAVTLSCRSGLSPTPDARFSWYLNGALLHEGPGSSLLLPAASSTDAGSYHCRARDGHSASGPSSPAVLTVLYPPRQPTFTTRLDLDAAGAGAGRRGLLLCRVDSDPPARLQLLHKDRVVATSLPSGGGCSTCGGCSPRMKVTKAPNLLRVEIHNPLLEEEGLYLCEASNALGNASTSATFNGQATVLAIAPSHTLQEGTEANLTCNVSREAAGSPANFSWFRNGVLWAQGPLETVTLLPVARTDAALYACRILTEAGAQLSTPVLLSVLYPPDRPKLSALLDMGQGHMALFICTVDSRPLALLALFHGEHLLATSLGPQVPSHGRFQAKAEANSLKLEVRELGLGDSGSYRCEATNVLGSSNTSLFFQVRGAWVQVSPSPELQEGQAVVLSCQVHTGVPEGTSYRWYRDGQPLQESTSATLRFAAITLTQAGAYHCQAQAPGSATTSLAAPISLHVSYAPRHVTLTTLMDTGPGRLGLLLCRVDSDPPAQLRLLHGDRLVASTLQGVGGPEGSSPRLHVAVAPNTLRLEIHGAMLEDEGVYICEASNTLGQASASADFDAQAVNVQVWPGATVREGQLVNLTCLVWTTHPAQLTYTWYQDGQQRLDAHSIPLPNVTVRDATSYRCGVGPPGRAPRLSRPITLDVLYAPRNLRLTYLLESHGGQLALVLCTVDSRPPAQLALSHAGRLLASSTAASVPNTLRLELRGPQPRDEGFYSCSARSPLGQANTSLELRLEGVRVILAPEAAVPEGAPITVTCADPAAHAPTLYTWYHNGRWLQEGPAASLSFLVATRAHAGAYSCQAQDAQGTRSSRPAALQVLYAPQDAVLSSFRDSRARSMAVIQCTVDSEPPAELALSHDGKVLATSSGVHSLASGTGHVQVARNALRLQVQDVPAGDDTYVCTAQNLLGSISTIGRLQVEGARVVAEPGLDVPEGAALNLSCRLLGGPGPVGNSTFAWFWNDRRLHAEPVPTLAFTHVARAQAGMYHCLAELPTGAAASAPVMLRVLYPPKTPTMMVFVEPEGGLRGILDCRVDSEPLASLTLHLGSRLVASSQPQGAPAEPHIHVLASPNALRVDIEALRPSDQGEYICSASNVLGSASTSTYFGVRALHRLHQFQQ
Procedure: as §1, §2, §3

IL-4R = molecular target: T3, IL-4R (Homo sapiens, UniProt P24394); assay: as above
T3 construct: The extracellular domains of receptors, which were fused with the Fc domain of immunoglobulin IgG; purchased R&D Systems
T3 sequence (P24394 26-232 limits assumed): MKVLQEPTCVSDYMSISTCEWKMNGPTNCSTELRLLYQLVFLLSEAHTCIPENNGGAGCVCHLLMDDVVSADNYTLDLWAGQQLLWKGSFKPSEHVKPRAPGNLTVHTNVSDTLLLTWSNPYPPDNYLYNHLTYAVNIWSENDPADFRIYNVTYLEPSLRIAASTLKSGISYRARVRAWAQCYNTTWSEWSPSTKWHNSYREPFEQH
Procedure: as §1, §2, §3

DC-SIGN = molecular target: T4, DC-SIGN (Homo sapiens, UniProt Q9NNX6); assay: as above
T4 construct: The extracellular domains of receptors, which were fused with the Fc domain of immunoglobulin IgG; purchased R&D Systems
T4 sequence (Q9NNX6 59-404 limits assumed): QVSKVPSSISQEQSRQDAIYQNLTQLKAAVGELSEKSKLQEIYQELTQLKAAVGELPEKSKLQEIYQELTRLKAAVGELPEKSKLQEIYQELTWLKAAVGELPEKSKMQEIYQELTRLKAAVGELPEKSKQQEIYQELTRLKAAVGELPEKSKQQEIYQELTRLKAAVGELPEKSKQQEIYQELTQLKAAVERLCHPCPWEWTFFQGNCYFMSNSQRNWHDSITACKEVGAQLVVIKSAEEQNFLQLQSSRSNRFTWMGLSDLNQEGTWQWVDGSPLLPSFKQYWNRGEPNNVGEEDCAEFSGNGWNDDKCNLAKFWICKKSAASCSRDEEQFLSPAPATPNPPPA
Procedure: as §1, §2, §3

CLEC9A = molecular target: T5, CLEC9A (Homo sapiens, UniProt Q6UXN8); assay: as above
T5 construct: The extracellular domains of receptors, which were fused with the Fc domain of immunoglobulin IgG; purchased R&D Systems
T5 sequence (Q6UXN8 57-241 limits assumed): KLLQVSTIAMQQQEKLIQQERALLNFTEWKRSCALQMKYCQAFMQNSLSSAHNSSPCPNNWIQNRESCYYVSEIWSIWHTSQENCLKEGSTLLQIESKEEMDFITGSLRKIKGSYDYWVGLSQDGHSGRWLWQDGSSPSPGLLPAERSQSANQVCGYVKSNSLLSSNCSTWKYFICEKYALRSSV
Procedure: as §1, §2, §3

peritoneal immune cells = assay: Expansion of peritoneal cells after subcutaneous injection, flow cytometry; format: in vivo, C57BL/6 mice; conditions: for Change in mature, active peritoneal immune cell populations: 1 nmol/g s.c. on days 0, 2, 4, cells 24 h after each injection
Procedure: FIGS. 7A-7D. Expansion of peritoneal cells in C57BL/6 mice. Mice were injected subcutaneously at a dose of 1 nmol/g body weight of svL4, sv6D or svC1. Cells in each population recovered in a peritoneal lavage are expressed as cell counts (in thousands). Cells from three mice in each treatment group were pooled for analysis. The number of cells in each population was normalized to the average recovery of total cells from all groups. For each cell type, the left-hand, middle and right-hand set of bars represent samples from mice treated with svL4, sv6D or svC1, respectively. Mice were injected on days 0, 2 and 4, and cells were collected 24 h after each injection. Day 1, open bar; day 3, grey bar; day 5, black bar. Populations that express activation markers are indicated by an asterisk.
Flow Cytometry Healthy C57BL/6 male mice, 10 weeks old, were injected subcutaneously with peptides on alternate days. Peritoneal cells were isolated from mice 24 h after dosing by injecting ice cold PBS (containing 3% FBS) into the peritoneal cavity, gently massaging the abdomen, and then collecting the fluid, which was transferred into K2EDTA-treated tubes for evaluation of specific biomarkers. Cells from three mice in each group were pooled, counted and divided among FACS tubes (1×10^6 cells per tube). Cells were washed once in PBS containing 3% FBS, then stained with 0.25 to 1 μg of fluorescently conjugated antibody per 10^6 cells in 100 μL of buffer as recommended by the manufacturer (Table 1).
Cells were incubated with the antibodies for 30 min at 4° C. in the dark. Following staining, the cells were washed two times with PBS/3% FBS and immediately analyzed with a MACSQuant flow cytometer (Miltenyi Biotech, Inc., San Diego, Calif.). Compensation was performed using single stain tubes for each color present in the analysis as well as an unstained control sample. Collection of flow cytometric data and analysis with FlowJo software, version 10.0.6 (FlowJo, LLC, Ashland, Oreg.) were performed by Biomodels LLC (Watertown, Mass.).
To examine whether increases occurred in mature immune cells, peritoneal cells from Balb/c and C57BL/6 mice were analyzed by flow cytometry after cells were stained with the markers listed in Table 1. […] To explore this observation more extensively, svL4 or sv6D was injected into C57BL/6 mice on day 0, 2 or 4. Peritoneal cells were examined by flow cytometry 24 h after each injection. Shown in FIGS. 7A-7D are results expressed as cell counts for F4/80 CD11b CD86 (mature, active macrophages); CD11c (DCs); CD11c CD86 (activated DCs); CD4 CD69 (activated T cells); CD8 CD69 (activated cytotoxic T cells); NK1.1 CD3^+ CD69 (activated NKT cells); NK1.1 CD3^− CD69 (activated NK cells); CD19 (B cells); and CD19 CD73 CD80 CD273 (memory B cells). The numbers of these mature, activated cells continued to increase with each injection.

“I: H-NQHTPRGGGSKK-NH2 / II: H-NQHTPRGGGSK / III: H-NQHTPRGGGS / IV: H-NQHTPRGGGS (amide I:11-IV:C, I:12-II:C, II:11-III:C) [sv6D]” was tested, and the “Binding to CD44” value (CD44) was “not detected”, the “Binding to Siglec-1” value (Siglec-1) was “did not bind significantly” and the “Binding to IL-4R” value (IL-4R) was “not detected”. For the same substance, the “Binding to DC-SIGN” value (DC-SIGN) was “did not bind significantly”, the “Binding to CLEC9A” value (CLEC9A) was “did not bind significantly” and the “Change in mature, active peritoneal immune cell populations” value (peritoneal immune cells) was “several-fold increases”. The “Overall peritoneal cell responses compared with svL4” value (peritoneal immune cells; DCs, T cells, NKT cells, days 0, 2, 4) was “greater than those to svL4”.

For “I: H-VQATQSNQHTPRGGGSKK-NH2 / II: H-VQATQSNQHTPRGGGSK / III: H-VQATQSNQHTPRGGGS / IV: H-VQATQSNQHTPRGGGS (amide I:17-IV:C, I:18-II:C, II:17-III:C) [svL4]”, the “Binding to CD44” value (CD44) was “not detected”, the “Binding to Siglec-1” value (Siglec-1) was “did not bind significantly” and the “Binding to IL-4R” value (IL-4R) was “not detected”. The “Binding to DC-SIGN” value (DC-SIGN) was “did not bind significantly”, the “Binding to CLEC9A” value (CLEC9A) was “did not bind significantly” and the “Injection after which a significant increase in peritoneal cells occurred” value (peritoneal immune cells; 1 nmol/g s.c.) was “only after the second injection”. The “Change in mature, active peritoneal immune cell populations” value (peritoneal immune cells) was “several-fold increases” and the “Response of CD19+ B cells” value (peritoneal immune cells; compared with sv6D) was “responded more strongly”.
